Measurements from ChEMBL document CHEMBL5247592, “Discovery of novel VEGFR-2-PROTAC degraders based on the localization of lysine residues via recruiting VHL for the treatment of gastric cancer” (Eur J Med Chem, 2022).
Calls of active or inactive are those of the source. The rule behind the calls is not given here.

How the values were obtained:
[1] = target: T1, von Hippel-Lindau disease tumor suppressor/Vascular endothelial growth factor receptor 2 (Homo sapiens, UniProt P35968+P40337); test: PROTAC activity at VHL/VEGFR2 in human HGC-27 cells assessed as induction of VEGRF2 protein degradation at 100 nM incubated for 2 hrs by Western blot analysis; format: cell-based
T1 sequence (P35968 20-1356 limits assumed): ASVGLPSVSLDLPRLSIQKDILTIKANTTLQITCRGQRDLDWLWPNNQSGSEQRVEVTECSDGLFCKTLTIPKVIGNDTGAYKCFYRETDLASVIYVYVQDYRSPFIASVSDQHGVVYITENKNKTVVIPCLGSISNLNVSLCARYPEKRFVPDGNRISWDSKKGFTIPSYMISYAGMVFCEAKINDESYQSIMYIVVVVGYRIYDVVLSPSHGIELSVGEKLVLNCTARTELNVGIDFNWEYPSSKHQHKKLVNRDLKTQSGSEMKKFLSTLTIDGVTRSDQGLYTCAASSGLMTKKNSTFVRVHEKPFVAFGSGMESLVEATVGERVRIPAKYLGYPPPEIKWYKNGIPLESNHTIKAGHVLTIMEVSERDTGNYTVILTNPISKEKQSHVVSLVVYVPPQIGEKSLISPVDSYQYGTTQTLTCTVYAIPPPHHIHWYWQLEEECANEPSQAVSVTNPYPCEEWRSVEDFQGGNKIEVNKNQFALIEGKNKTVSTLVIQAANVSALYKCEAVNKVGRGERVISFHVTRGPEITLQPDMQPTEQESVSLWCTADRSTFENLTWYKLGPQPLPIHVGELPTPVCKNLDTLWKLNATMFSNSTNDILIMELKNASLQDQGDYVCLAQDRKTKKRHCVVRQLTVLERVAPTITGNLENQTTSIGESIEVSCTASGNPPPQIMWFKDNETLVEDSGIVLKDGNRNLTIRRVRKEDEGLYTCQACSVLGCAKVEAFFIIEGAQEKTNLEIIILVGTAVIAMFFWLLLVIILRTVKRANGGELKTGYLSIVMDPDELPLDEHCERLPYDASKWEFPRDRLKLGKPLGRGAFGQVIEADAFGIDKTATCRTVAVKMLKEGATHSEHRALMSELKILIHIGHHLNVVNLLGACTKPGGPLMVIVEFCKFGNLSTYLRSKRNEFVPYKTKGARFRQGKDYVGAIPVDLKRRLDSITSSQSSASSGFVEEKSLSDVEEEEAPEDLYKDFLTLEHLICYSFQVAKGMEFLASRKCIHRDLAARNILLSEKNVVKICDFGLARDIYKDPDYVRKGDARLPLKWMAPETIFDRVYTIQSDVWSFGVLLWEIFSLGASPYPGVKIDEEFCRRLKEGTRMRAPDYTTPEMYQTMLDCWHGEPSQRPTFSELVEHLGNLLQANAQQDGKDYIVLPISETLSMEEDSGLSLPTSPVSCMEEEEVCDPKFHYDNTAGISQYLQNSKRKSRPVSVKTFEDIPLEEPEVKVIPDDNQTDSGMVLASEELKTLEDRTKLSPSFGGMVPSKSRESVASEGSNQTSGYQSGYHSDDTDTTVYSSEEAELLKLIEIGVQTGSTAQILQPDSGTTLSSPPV
T1 sequence (P40337 whole entry partner): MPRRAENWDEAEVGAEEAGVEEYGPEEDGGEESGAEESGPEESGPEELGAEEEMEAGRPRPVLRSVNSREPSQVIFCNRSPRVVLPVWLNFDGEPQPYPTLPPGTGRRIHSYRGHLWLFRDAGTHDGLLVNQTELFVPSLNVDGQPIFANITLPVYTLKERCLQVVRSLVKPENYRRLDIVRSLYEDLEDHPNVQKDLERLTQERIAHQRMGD

[2] = tested on: HGC-27; test: Antiproliferative activity against human HGC-27 cells assessed as inhibition of cell growth incubated for 72 hrs by MTT assay; format: functional, cell-based; details: HGC-27, 72 h
[3] = Cytotoxicity against HUVEC cells assessed as inhibition of cell growth incubated for 72 hrs by MTT assay; format: toxicity, cell-based; details: human
[4] = target: Vascular endothelial growth factor receptor 2 (Homo sapiens, UniProt P35968); test: Inhibition of VEGFR2 (unknown origin) by caliper mobility shift assay
Chain of Vascular endothelial growth factor receptor 2 (P35968 whole entry): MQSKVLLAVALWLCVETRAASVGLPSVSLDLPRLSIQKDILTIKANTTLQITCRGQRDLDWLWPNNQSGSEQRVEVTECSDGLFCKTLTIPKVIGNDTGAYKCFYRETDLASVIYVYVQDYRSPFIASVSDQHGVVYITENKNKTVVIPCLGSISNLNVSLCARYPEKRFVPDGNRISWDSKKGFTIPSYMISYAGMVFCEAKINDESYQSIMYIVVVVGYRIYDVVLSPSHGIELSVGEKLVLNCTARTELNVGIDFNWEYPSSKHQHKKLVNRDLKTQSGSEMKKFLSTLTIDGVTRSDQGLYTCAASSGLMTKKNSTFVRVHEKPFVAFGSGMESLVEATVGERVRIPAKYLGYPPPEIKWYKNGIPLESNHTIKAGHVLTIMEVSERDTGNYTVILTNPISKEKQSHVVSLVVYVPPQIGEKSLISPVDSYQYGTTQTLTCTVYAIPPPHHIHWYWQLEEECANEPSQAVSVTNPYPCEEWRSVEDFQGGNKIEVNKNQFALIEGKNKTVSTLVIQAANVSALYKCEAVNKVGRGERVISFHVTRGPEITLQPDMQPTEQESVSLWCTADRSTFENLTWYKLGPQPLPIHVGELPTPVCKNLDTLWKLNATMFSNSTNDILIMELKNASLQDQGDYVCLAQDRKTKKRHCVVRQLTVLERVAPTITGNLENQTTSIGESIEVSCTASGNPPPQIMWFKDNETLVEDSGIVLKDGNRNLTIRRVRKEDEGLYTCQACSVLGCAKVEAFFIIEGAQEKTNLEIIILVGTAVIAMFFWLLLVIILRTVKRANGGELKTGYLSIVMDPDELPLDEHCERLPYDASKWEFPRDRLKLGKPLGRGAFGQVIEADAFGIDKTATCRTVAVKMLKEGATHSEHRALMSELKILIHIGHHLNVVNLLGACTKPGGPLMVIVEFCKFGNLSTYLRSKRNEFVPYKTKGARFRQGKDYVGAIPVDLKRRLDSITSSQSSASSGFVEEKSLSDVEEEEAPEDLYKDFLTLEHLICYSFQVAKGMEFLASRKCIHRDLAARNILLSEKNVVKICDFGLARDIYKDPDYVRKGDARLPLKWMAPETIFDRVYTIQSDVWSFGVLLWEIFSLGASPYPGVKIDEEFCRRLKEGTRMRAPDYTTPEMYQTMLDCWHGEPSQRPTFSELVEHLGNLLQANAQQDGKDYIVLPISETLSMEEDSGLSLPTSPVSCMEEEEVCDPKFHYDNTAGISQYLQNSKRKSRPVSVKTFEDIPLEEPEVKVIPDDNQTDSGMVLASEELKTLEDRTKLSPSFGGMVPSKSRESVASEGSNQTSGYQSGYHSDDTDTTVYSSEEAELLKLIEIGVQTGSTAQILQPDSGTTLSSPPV

[5] = Cytotoxicity against HEK293T cells assessed as inhibition of cell growth incubated for 72 hrs by MTT assay; format: toxicity, cell-based, HEK-293T; details: human
[6] = Cytotoxicity against human GES1 cells assessed as inhibition of cell growth incubated for 72 hrs by MTT assay; format: toxicity, cell-based
[7] = target: T1, von Hippel-Lindau disease tumor suppressor/Vascular endothelial growth factor receptor 2; test: PROTAC activity at VHL/VEGFR2 in human HGC-27 cells assessed as induction of VEGRF2 protein degradation at 1 uM incubated for 2 hrs by Western blot analysis; format: cell-based
[8] = target: T1, von Hippel-Lindau disease tumor suppressor/Vascular endothelial growth factor receptor 2; test: PROTAC activity at VHL/VEGFR2 in human HGC-27 cells assessed as induction of VEGRF2 protein degradation at 10 uM incubated for 2 hrs by Western blot analysis; format: cell-based

SMILES	Activity [1]	IC50 [2] [nM]	IC50 at 72 h [3] [nM]	IC50 [4] [nM]	IC50 at 72 h [5] [nM]	IC50 at 72 h [6] [nM]	Activity [7]	Activity [8]
Cc1ccc(NC(=O)Cn2cc(-c3ccc4c(NC(=O)c5ccc(N)cc5)n[nH]c4c3)cn2)cc1C(F)(F)F	inactive	2120	110	2.7	25	2350	–	–
NS(=O)(=O)OC[C@@H]1C[C@@H](n2ccc3c(N[C@H]4CCc5ccccc54)ncnc32)C[C@@H]1O	–	–	–	–	–	–	inactive	–
Cc1ccc(NC(=O)Cn2cc(-c3ccc4c(NC(=O)c5ccc(N6CCNCC6)cc5)n[nH]c4c3)cn2)cc1C(F)(F)F	–	2490	1700	0.42	3570	1320	–	–
CC(=O)N[C@H](C(=O)N1C[C@H](O)C[C@H]1C(=O)NCc1ccc(-c2scnc2C)cc1)C(C)(C)C	–	–	–	–	–	–	–	inactive
